In article PMC10193574 (ACS Omega, 2023):
≈ marks a conversion by molar mass, not a printed value. Where two headings read alike, the source gives them in different places.

Columns and labels:
[1] = tested on: MRSA (ATCC43300); experiment: Antibacterial MIC, broth growth inhibition OD600; assay type: cell-based, Staphylococcus aureus; conditions: MIC = ≥80% growth inhibition
[2] = tested on: E. coli (ATCC25922); experiment: Antibacterial MIC, broth growth inhibition OD600; assay type: cell-based, Escherichia coli; conditions: for MIC: Escherichia coli, ATCC25922, read-out: MIC Ec
[3] = tested on: P. aeruginosa (ATCC27853); experiment: Antibacterial MIC, broth growth inhibition OD600; assay type: cell-based, Pseudomonas aeruginosa
[4] = tested on: C. neoformans (ATCC 208821); experiment: Antifungal MIC, growth inhibition; assay type: cell-based; conditions: Cryptococcus neoformans, ATCC208821, read-out: MIC Cn
[5] = tested on: C. albicans (ATCC90028); experiment: Antifungal MIC, growth inhibition; assay type: cell-based; conditions: Candida albicans
[6] = tested on: A. baumannii (ATCC19606); experiment: Antibacterial MIC, broth growth inhibition OD600; assay type: cell-based, Acinetobacter baumannii
[7] = tested on: E. coli, K. pneumoniae, P. aeruginosa, A. baumannii, MRSA, C. albicans, C. neoformans; experiment: Antibacterial and antifungal MIC panel; assay type: cell-based
[8] = ATCC90028, read-out: MIC Ca, MIC = ≥80% growth inhibition

What does the source list for `COc1cc2c(=O)c(C(=O)NCCNCCO)cn(Cc3ccccc3)c2cc1OCc1cccc(F)c1` [Compound 42, 1-Benzyl-7-[(3-fluorobenzyl)oxy]-N-{2-[(2-hydroxyethyl)amino]ethyl}-6-methoxy-4-oxo-1,4-dihydroquinoline-3-carboxamide]?
MIC MRSa [1]: >32 µg/mL; MIC [2]: < 0.25 µg/mL; MIC ([3]; Pseudomonas aeruginosa, ATCC27853, read-out: MIC Pa): < 0.25 µg/mL; MIC [4]: < 0.25 µg/mL; MIC ([5]; ATCC90028, read-out: MIC Ca): > 32 µg/mL; MIC ([6]; Acinetobacter baumannii, ATCC19606, read-out: MIC Ab): < 0.25 µg/mL

Which “MIC Ec” value ([2]; MIC = ≥80% growth inhibition) does the source give for colistin [reference compound] here?
The value was 0.12 µg/mL.

And the “MIC Pa” value ([3]; MIC = ≥80% growth inhibition)?
The value was 0.25 µg/mL.

What about the “MIC Ab” value ([6]; MIC = ≥80% growth inhibition) of the same molecule?
Its value is 0.25 µg/mL.

And the “MIC against Gram-negative bacteria (summary)” value [7]?
Its value is 0.1 to 0.25 µg/mL.

Which “MIC MRSa” value [1] does the source give for `CCn1cc(C(=O)NCCNCCO)c(=O)c2cc(OC)c(OCc3cc(F)cc(F)c3)cc21` [Compound 43, 7-[(3,5-Difluorobenzyl)oxy]-1-ethyl-N-{2-[(2-hydroxyethyl)amino]ethyl}-6-methoxy-4-oxo-1,4-dihydroquinoline-3-carboxamide] here?
The value was >32 µg/mL.

And the MIC [2]?
Its MIC is < 0.25 µg/mL.

What about the MIC [5, 8] of the same molecule?
The MIC was > 32 µg/mL.

How did the MIC [5, 8] turn out when `OC(Cn1cncn1)(Cn1cncn1)c1ccc(F)cc1F` [fluconazole, reference compound] was run?
The MIC was 0.125 µg/mL (≈ 0.408 µM).
